This test deals with human F508del-CFTR (Homo sapiens, UniProt P13569, DEL508-508). As to the kind of experiment: F508del-CFTR cell surface expression (corrector activity), DiscoveRx ß-galactosidase complementation chemiluminescence assay in recombinant U2OS cell line.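 For all read-outs here: U2OS cells co-expressing ProLink-tagged F508del-CFTR and a membrane-anchored enzyme acceptor, where more surface CFTR restores β-galactosidase activity measured by chemiluminescence.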 The following applies: for pEC50: EC50, F508del-CFTR cell surface expression, 16h compound incubation, geomean values; for Emax: U2OS, in relation to Emax of corrector lumacaftor (=100%), arithmetic mean values.
Chain of human F508del-CFTR (P13569 with tags, fused parts or gaps DEL508-508): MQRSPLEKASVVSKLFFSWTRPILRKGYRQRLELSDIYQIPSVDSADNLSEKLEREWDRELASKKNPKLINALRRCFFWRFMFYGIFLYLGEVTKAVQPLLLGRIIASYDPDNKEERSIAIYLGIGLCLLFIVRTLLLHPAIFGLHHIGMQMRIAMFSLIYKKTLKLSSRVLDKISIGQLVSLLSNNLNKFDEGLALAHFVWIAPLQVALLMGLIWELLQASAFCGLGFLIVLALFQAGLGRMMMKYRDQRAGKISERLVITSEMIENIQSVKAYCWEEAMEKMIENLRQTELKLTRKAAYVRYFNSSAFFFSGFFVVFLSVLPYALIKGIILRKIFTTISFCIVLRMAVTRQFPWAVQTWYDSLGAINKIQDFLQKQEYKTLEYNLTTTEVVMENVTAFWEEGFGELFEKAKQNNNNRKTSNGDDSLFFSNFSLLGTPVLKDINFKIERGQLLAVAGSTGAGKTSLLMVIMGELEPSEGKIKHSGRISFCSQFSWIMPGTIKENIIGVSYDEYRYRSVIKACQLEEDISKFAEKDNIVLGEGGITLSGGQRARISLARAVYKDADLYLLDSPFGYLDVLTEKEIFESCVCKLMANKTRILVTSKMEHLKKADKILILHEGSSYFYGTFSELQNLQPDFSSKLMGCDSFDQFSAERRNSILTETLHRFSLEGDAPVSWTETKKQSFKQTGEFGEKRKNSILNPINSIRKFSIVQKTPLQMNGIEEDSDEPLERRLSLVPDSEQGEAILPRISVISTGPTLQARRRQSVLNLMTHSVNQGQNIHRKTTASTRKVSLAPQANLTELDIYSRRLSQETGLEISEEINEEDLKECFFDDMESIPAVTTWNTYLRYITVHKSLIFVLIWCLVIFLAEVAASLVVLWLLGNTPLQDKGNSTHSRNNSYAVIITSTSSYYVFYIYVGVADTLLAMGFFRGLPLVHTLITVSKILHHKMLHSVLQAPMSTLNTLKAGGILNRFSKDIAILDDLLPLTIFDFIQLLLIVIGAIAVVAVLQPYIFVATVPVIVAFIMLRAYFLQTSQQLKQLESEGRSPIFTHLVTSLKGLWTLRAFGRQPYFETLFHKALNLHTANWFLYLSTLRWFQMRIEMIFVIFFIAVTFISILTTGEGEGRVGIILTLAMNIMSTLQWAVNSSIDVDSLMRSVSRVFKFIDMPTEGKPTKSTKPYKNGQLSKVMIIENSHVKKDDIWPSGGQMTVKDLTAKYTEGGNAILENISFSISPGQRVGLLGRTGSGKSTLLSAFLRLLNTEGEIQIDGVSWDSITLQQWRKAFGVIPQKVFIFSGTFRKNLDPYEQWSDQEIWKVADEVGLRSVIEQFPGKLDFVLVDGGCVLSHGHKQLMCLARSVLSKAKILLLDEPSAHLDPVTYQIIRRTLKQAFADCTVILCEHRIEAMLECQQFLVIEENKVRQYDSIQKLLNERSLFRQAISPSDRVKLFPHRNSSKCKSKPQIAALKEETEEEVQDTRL

pEC50: −log10 of the molar value.

Take `CN1C(=O)C[C@@H](C(=O)NCCc2ccc3c(c2)OCO3)NC(=O)c2c(ccc3ccccc23)OC[C@@H](Cc2ccccc2)NC(=O)CN(CCC2CCCCC2)C(=O)[C@@H]1CC1CCCC1` (mixture of isomers) [Example 290, (3RS,7S,13R)-N-(2-(benzo[d][1,3]dioxol-5-yl)ethyl)-13-benzyl-9-(2-cyclohexylethyl)-7-(cyclopentylmethyl)-6-methyl-1,5,8,11-tetraoxo-1,2,3,4,5,6,7,8,9,10,11,12,13,14-tetradecahydronaphtho[1,2-p][1]oxa[4,7,10,14]tetraazacycloheptadecine-3-carboxamide]: the pEC50 (in general, −log10 of the EC50, conventionally taken in molar units) (U2OS cell line) is 6.73.
In the case of `CN1C(=O)C[C@@H](C(=O)NCCc2ccc3c(c2)OCO3)NC(=O)c2c(ccc3ccccc23)OC[C@@H](Cc2ccccc2)NC(=O)CN(CCC2CCCCC2)C(=O)[C@@H]1CC1CCC1` (mixture of isomers) [Example 292, (3RS,7S,13R)-N-(2-(benzo[d][1,3]dioxol-5-yl)ethyl)-13-benzyl-7-(cyclobutylmethyl)-9-(2-cyclohexylethyl)-6-methyl-1,5,8,11-tetraoxo-1,2,3,4,5,6,7,8,9,10,11,12,13,14-tetradecahydronaphtho[1,2-p][1]oxa[4,7,10,14]tetraazacycloheptadecine-3-carboxamide], the pEC50 (U2OS cell line) is 6.94.
For `COc1cccc(CCNC(=O)[C@@H]2CC(=O)N(C)[C@@H](CC3CCCC3)C(=O)N(C[C@@H]3CCCCO3)CC(=O)N[C@H](Cc3ccccc3)COc3ccc4ccccc4c3C(=O)N2)c1` (mixture of isomers) [Example 293, (3RS,7S,13R)-13-benzyl-7-(cyclopentylmethyl)-N-(3-methoxyphenethyl)-6-methyl-1,5,8,11-tetraoxo-9-(((S)-tetrahydro-2H-pyran-2-yl)methyl)-1,2,3,4,5,6,7,8,9,10,11,12,13,14-tetradecahydronaphtho[1,2-p][1]oxa[4,7,10,14]tetraazacycloheptadecine-3-carboxamide], the pEC50 (U2OS cell line) is 6.47.
Same read-out and setting: the value for `COc1cccc(CCNC(=O)[C@@H]2CC(=O)N(C)[C@@H](CC3CCCC3)C(=O)N(C[C@@H]3CCCCO3)CC(=O)N[C@H](Cc3ccccc3)COc3ccc4ccccc4c3C(=O)N2)c1` (mixture of isomers) [Example 295, (3RS,7S,13R)-13-benzyl-7-(cyclopentylmethyl)-N-(3-methoxyphenethyl)-6-methyl-1,5,8,11-tetraoxo-9-(((R)-tetrahydro-2H-pyran-2-yl)methyl)-1,2,3,4,5,6,7,8,9,10,11,12,13,14-tetradecahydronaphtho[1,2-p][1]oxa[4,7,10,14]tetraazacycloheptadecine-3-carboxamide] was 6.69; that for `COc1cccc(CCNC(=O)[C@@H]2CC(=O)N(C)[C@@H](CC3CCCCC3)C(=O)N(C[C@H]3CCCCO3)CC(=O)N[C@H](Cc3ccccc3)COc3ccc4ccccc4c3C(=O)N2)c1` (mixture of isomers) [Example 296, (3RS,7S,13R)-13-benzyl-7-(cyclohexylmethyl)-N-(3-methoxyphenethyl)-6-methyl-1,5,8,11-tetraoxo-9-(((R)-tetrahydro-2H-pyran-2-yl)methyl)-1,2,3,4,5,6,7,8,9,10,11,12,13,14-tetradecahydronaphtho[1,2-p][1]oxa[4,7,10,14]tetraazacycloheptadecine-3-carboxamide] was 6.80; that for `COc1cccc(CCNC(=O)[C@@H]2CC(=O)N(C)[C@@H](CC3CCCC3)C(=O)N(CCC3CCCCC3)CC(=O)N[C@H](Cc3ccccc3)COc3ccc4ccccc4c3C(=O)N2)c1` (mixture of isomers) [Example 300, (3RS,7S,13R)-13-benzyl-9-(2-cyclohexylethyl)-7-(cyclopentylmethyl)-N-(3-methoxyphenethyl)-6-methyl-1,5,8,11-tetraoxo-1,2,3,4,5,6,7,8,9,10,11,12,13,14-tetradecahydronaphtho[1,2-p][1]oxa[4,7,10,14]tetraazacycloheptadecine-3-carboxamide] was 6.99.
For `COc1cccc(CCNC(=O)[C@@H]2CC(=O)N(C)[C@@H](CC3CCCCC3)C(=O)N(CCC3CCCCC3)CC(=O)N[C@H](Cc3ccccc3)COc3ccc4ccccc4c3C(=O)N2)c1` (mixture of isomers) [Example 301, (3RS,7S,13R)-13-benzyl-9-(2-cyclohexylethyl)-7-(cyclohexylmethyl)-N-(3-methoxyphenethyl)-6-methyl-1,5,8,11-tetraoxo-1,2,3,4,5,6,7,8,9,10,11,12,13,14-tetradecahydronaphtho[1,2-p][1]oxa[4,7,10,14]tetraazacycloheptadecine-3-carboxamide], the pEC50 (U2OS cell line) is 6.95.
On to `COc1cc2c(cn1)OC[C@@H](Cc1ccccc1)NC(=O)[C@@H]1CCCCN1C(=O)[C@H](CC(C)C)N(C)C(=O)C[C@@H](C(=O)NCCc1noc(C3CC3)n1)NC2=O` (mixture of isomers) [Example 516, (7S,11S,17aRS,20R)-20-benzyl-N-(2-(5-cyclopropyl-1,2,4-oxadiazol-3-yl)ethyl)-11-isobutyl-3-methoxy-10-methyl-5,9,12,18-tetraoxo-5,6,7,8,9,10,11,12,15,16,17,17a,18,19,20,21-hexadecahydro-14H-dipyrido[2,1-f:4′,3′-p][1]oxa[4,7,10,14]tetraazacycloheptadecine-7-carboxamide], for which the maximal response (Emax) (commonly the size of the effect at its maximum, as opposed to the concentration needed) came to 155%. The negative logarithm of the EC50 (pEC50) (U2OS cells) is 6.31.
With `COc1cccc(CCNC(=O)[C@@H]2CC(=O)N(C)[C@@H](CC(C)C)C(=O)N3CCc4ccccc4[C@H]3C(=O)N[C@H](Cc3ccccc3)COc3ccnc(OC)c3C(=O)N2)c1` (mixture of isomers) [Example 569, (7S,11S,19bRS,22R)-22-benzyl-11-isobutyl-4-methoxy-N-(3-methoxyphenethyl)-10-methyl-5,9,12,20-tetraoxo-5,6,7,8,9,10,11,12,15,19b,20,21,22,23-tetradecahydro-14H-pyrido[3′,4′:16,17][1]oxa[4,7,10,14]tetraazacycloheptadecino[6,7-a]isoquinoline-7-carboxamide], the Emax worked out at 270%. For the same compound, the pEC50 (U2OS cells) is 6.97.
The corresponding values for `COc1cccc(CCNC(=O)[C@@H]2CC(=O)N(C)[C@@H](CC(C)C)C(=O)N(C)[C@@H](C)C(=O)N[C@H](Cc3ccccc3)COc3ccc4cc(C)oc4c3C(=O)N2)c1` (mixture of isomers) [Example 575, (8R,11RS,14S,18S)-8-benzyl-14-isobutyl-N-(3-methoxyphenethyl)-2,11,12,15-tetramethyl-10,13,16,20-tetraoxo-7,8,9,10,11,12,13,14,15,16,17,18,19,20-tetradecahydrobenzofuro[7,6-p][1]oxa[4,7,10,14]tetraazacycloheptadecine-18-carboxamide] are 273% and 6.39.
The corresponding values for `Cc1cc(CCNC(=O)[C@@H]2CC(=O)N(C)[C@@H](CC(C)C)C(=O)N(C)[C@@H](C)C(=O)N[C@H](Cc3ccccc3)COc3ccc4cc(C)oc4c3C(=O)N2)on1` (mixture of isomers) [Example 576, (8R,11RS,14S,18S)-8-benzyl-14-isobutyl-2,11,12,15-tetramethyl-N-(2-(3-methylisoxazol-5-yl)ethyl)-10,13,16,20-tetraoxo-7,8,9,10,11,12,13,14,15,16,17,18,19,20-tetradecahydrobenzofuro[7,6-p][1]oxa[4,7,10,14]tetraazacycloheptadecine-18-carboxamide] are 268% and 6.28.
